Assay results reported in patent EP4116414A1 (Centre National de la Recherche Scientifique, dated 2023).
Blank lines part the entries; values can stand above or below the molecule they belong to.

What was measured:
[1] = target: Bacillus subtilis 168 formate dehydrogenase YjgCD heterodimer, wild type (6his-YjgC, SEQ ID NO: 1; YjgD, SEQ ID NO: 3) (Bacillus subtilis, UniProt O34720); settings: formate oxidation, benzyl viologen as artificial electron acceptor, 25 mM CHES pH 10, 25°C
Protocol: FDH activity was determined using an Avaspec-2048L spectrometer (Avantes), inside an anaerobic glovebox filled with an atmosphere of 100% N2. The experiments were carried out at room temperature (25°C) with stirring.
For formate::benzyl viologen OR measurements, the reduction of 17.5 mM benzyl viologen (BV) was monitored at 600 nm (ε600 nm BV^+ = 7.0945 mM^-1 cm^-1) in 25 mM CHES pH 10 after addition of 50 mM sodium formate. One unit of oxidizing activity is defined as the amount of FDH capable of oxidizing 1 µmol of formate par min per mg of enzyme.
First the yjgCD operon was expressed under the control of an inducible promoter and the YjgC protein to which a 6-histidine tag was added at the N-terminus was purified.

[2] = target: T1, YjgC 6his-tagged in N-terminal (His-YjgC), Bacillus subtilis 168 (Bacillus subtilis 168, UniProt O34720 1-985); test: Ni-NTA affinity purification of His-YjgC, Coomassie-stained SDS-PAGE
T1 construct: Expressed from the yjgCD operon under a xylose inducible promoter in B. subtilis strain 4088 and purified on Ni-NTA; Carries Mo-bisPGD and Fe-S cofactors; also called 6his-YjgC; catalytic subunit of YjgCD; not shown: N-terminal 6-his tag followed by a TEV cleavage site
T1 sequence: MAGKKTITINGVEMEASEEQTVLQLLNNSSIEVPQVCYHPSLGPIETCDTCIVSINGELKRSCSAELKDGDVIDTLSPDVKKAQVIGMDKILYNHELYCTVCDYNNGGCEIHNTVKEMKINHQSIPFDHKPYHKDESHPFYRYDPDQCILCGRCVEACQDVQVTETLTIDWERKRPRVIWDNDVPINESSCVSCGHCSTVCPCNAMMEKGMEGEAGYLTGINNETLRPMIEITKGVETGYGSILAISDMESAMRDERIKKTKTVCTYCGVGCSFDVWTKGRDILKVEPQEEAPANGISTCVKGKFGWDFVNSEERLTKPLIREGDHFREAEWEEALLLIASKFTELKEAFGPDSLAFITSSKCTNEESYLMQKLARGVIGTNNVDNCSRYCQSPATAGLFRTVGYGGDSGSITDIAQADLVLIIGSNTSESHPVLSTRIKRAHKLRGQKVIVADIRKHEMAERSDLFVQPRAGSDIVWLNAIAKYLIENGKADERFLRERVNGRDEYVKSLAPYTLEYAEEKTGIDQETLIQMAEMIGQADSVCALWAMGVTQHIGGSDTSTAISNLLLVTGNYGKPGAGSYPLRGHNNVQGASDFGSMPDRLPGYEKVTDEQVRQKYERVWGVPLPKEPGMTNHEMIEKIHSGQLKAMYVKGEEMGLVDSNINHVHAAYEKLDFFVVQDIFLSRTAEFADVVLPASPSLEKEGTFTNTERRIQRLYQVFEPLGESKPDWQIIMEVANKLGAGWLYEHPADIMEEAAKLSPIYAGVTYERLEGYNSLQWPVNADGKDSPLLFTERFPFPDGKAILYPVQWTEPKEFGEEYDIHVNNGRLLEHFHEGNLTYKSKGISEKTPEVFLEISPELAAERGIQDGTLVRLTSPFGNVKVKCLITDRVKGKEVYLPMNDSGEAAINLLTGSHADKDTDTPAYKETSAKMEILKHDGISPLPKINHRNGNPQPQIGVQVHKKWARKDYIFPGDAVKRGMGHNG

Molecule: formate
Kcat ([1]; anaerobic, YjgCD heterodimer MW 132 kDa): 96,1 ± 4 s^-1
Km ([1]; read-out: KM formate, anaerobic (100% N2)): 5.1 mM

binding result [2]: binds
B1: YjgD protein of Bacillus subtilis 168 (other)
chain: MAKAIKRIQKIEVTEEDQRKRDLREIEDALIDHKEAILETLHMLGHMNERGVLPLLRGLFGQGDKVLDILVKKADTEETANTLKNLLLLFGTLGMLDVKQLEPLILKVNAGVASAVEQKNSEEKTGYFDIIRSLKDPEINKSITLLFSFLKGMGQDTKELERTTQPPEHQKHHQEPREKRGMNKRD
notes: Untagged and co-expressed with His-YjgC from the yjgCD operon; Predicted monomeric mass 21.3 kDa; also called partner subunit of YjgCD
